Results published in US6815205B2, “Auxinic analogues of indole-3-acetic acid” (Invitrogen Corporation, priority 1995, dated 2004).
Entries after “also recorded” stand apart in the source; their conditions may differ.

Tests used:
transformed tobacco = test: Regeneration of Agrobacterium-mediated transformed tobacco tissue under kanamycin selection; format: cell-based; conditions: in the presence of BAP; 100 mg/l kanamycin
Description: (§1) These IAA analogues were further evaluated for their abilities to effect the regeneration of plant tissues comprising foreign DNA. Tobacco and potato tissues were subjected to Agrobacterium-mediated transformation techniques, including cocultivation with Agrobacterium containing pBI121 and selecting with MS complete medium containing 0.5 mg/l BAP, 2 mg/l IAA derivative and 100 mg/l kanomycin.
(§2) Agrobacterium-mediated plant transformation was performed as described by Lin et al. (1994) Focus 16:72-77. For example:
In tobacco, the leaf discs were incubated with 10^9 cells/ml of Agrobacterium tumefaciens LBA4404 cells containing pBI121 in MS complete medium with 0.5 mg/l MES for 10 minutes, transferred to solid MS complete medium, and incubated for two days at 25° C., using an 18 hour light/6 hour dark cycle for cocultivation. After cocultivation, the explants were transferred to the MS medium containing a different ratio of BAP/IAA or BAP/IAA analogue, 100 mg/l kanamycin and 500 mg/l carbenicillin and incubated at 25° C. using an 18 hour light/6 hour dark cycle for shoot formation.

transformed potato = test: Regeneration of Agrobacterium-mediated transformed potato tissue under kanamycin selection; format: cell-based; set-up: key to Potato Callus (regeneration of transformed tissue): +(−) means preliminary observation; conditions: 100 mg/l kanamycin; for Potato Callus (regeneration of transformed tissue): BAP 0.5 mg/l, 2 mg/l IAA derivative, Agrobacterium pBI121; for regeneration of kanamycin resistant calli in transformed potato: in the presence of BAP
Description: as §1
Plant transformation in potato stems is carried out as described above in section (a) for tobacco.
as §2
In another example, potato leaf discs were transformed with the Agrobacterium-mediation technique as described above for tobacco. The potato explants were then subjected to incubation with IAA analogues in the absence and presence of cytokinin to screen for auxinic activities.

tobacco leaf discs [1] = test: Regeneration of roots or calli from tobacco leaf explants, MS complete medium with auxin only; format: cell-based, Nicotiana tobaccum Xanthi; set-up: key to Tobacco Callus (regeneration): +(−) means preliminary observation; conditions: for Tobacco Callus (regeneration): Auxins 2 mg/l, no cytokinin, MS complete medium
Description: (§3) In particular embodiments of the invention, various IAA analogues were screened for auxinic activity by incubating different plant tissues, e.g., tobacco and tomato leaf discs and potato stems in (a) MS complete medium (obtained from Life Technologies, Inc., Gaithersburg, Md.) containing different concentrations of auxin only and (2) the MS complete auxin medium containing different ratios of cytokinin/auxin.
(§4) In another embodiment of the invention, IAA analogues were screened for auxinic activity. […] Table 1 documents the ability of the different IAA analogues to stimulate the regeneration of roots or calli from tobacco, tomato and potato. In general, IAA analogues having a bromine substitution at the 2
Seeds of Nicotiana tobaccum Xanthi are provided by Dr. James Saunders (USDA, Beltsville, Md.). Young tobacco leaves are removed and cut into small pieces.
The regeneration of plant tissues using tissue culture depends on plant hormones such as auxin and cytokinin. It is known that the presence of an auxin in plant tissue cultured on Murashige and Skoog (MS) medium (Murashige, T. and F. Skoog (1962) Physiol. Plant 15:473-497) stimulates the formation of root structure whereas the formation of callus is observed when not only the auxin but also a cytokinin complement the MS nutrient medium. Therefore, evaluation of a test compound as a potential new auxin is performed by incubating tobacco leaf discs in (a) the MS complete medium containing different concentrations of auxin only and (b) the MS complete medium containing different ratios of cytokinin to auxin concentrations (cytokinin/auxin).
(§5) Young tobacco leaves, potato stems, tomato leaves and cassava leaves and stems from one-month-old plants were removed and cut into small pieces. The explants were incubated on (1) the MS complete medium containing different concentrations of auxin related compounds only (2) the MS complete medium containing different concentrations of auxin-related compounds and 0.5 mg/l benzylaminopurine (BAP) using an 18 hour light/6 hour dark cycle until the formation of green calli, shoots or roots.

[2] = disclosed in copending U.S. application Ser. No. 08/430,209; cited from earlier work
Arabidopsis thaliana = test system: Arabidopsis thaliana
Description: Seeds of Arabidopsis thaliana ecotypes Columbia and Landersberg ereta are provided by Dr. Keith Davis (The Ohio State University, Columbus). Tissues of hypocotyl are removed from 10-day-old seedlings, transferred to MS complete medium containing (1) different concentrations of IAA or IAA analogue with different concentrations of N^6.(Δ2Isopentenyl) adenine (2iP) and (2) different concentrations of IAA analogue with different concentrations of 2iP, BAP, or kinetin. The explants are incubated at 23° C. using an 18 h light/6 h dark cycle until the formation of green calli and shoots.

Cassava leaves and stems = test: Regeneration of shoots or calli from cassava leaves and stems with auxin in the presence of BAP; format: cell-based; conditions: 2 mg/l with 0.5 mg/l BAP, MS complete medium
Description: Further, examples of IAA analogues of the invention were evaluated for auxinic activity in the presence of a cytokinin.
In another embodiment of the invention, IAA analogues of the present invention were applied to the regeneration of plant tissues known in the art to be difficult to regenerate, such as cassava, woody plants, and monocotyledonous crops [Vasil and Vasil (1994) in Plant Cell and Tissue Culture (Vasil and Thorpe, eds.), Kluwer Academic Publishers, Dordrech, Netherlands; Chee (1995) Plant Cell Reports 14:753-757; Bums and Schwartz (1996) Plant Cell Reports 15:405-408; Mihaljevic et al. (1996) Plant Cell Reports 15:610-614; Schopke et al. (1996) Nature Biotechnology 14:731].
Stems or third young leaves were removed from the one month old Cassava plants and cut into small pieces. The explants were incubated on MS complete medium containing different concentrations of auxin related compounds and 0.5 mg/l benzylaminopurine (BAP).
(§6) Young tobacco leaves, potato stems, tomato leaves and cassava leaves and stems from one-month-old plants were removed and cut into small pieces. […]

tobacco leaf discs [3] = test: Regeneration of shoots or calli from tobacco leaf explants, auxin together with cytokinin (BAP); format: cell-based, Nicotiana tobaccum Xanthi; set-up: key to Tobacco Callus (regeneration): +(−) means preliminary observation
Description: In particular embodiments of the invention, various IAA analogues were screened for auxinic activity by incubating different plant tissues, e.g., tobacco and tomato leaf discs and potato stems in (a) MS complete medium (obtained from Life Technologies, Inc., Gaithersburg, Md.) containing different concentrations of auxin only and (2) the MS complete auxin medium containing different ratios of cytokinin/auxin. These IAA derivatives were further evaluated for auxinic activity in the presence of a cytokinin. […] Incubation of plant tissues Seeds of Nicotiana tobaccum Xanthi are provided by Dr. James Saunders (USDA, Beltsville, Md.). Young tobacco leaves are removed and cut into small pieces. […] The regeneration of plant tissues using tissue culture depends on plant hormones such as auxin and cytokinin. It is known that the presence of an auxin in plant tissue cultured on Murashige and Skoog (MS) medium (Murashige, T. and F. Skoog (1962) Physiol. Plant 15:473-497) stimulates the formation of root structure whereas the formation of callus is observed when not only the auxin but also a cytokinin complement the MS nutrient medium. […]

potato stems [4] = test: Regeneration of shoots or calli from potato stem explants, auxin together with cytokinin (BAP); format: cell-based; set-up: key to Potato Callus (regeneration): +(−) means preliminary observation
Description: In particular embodiments of the invention, various IAA analogues were screened for auxinic activity by incubating different plant tissues, e.g., tobacco and tomato leaf discs and potato stems in (a) MS complete medium (obtained from Life Technologies, Inc., Gaithersburg, Md.) containing different concentrations of auxin only and (2) the MS complete auxin medium containing different ratios of cytokinin/auxin. These IAA derivatives were further evaluated for auxinic activity in the presence of a cytokinin. […] Incubation of plant tissues Potato seeds of variety “Kent V. F.” are provided by Dr. James Saunders (USDA, Beltsville, Md.). Young potato stems are removed and cut into small pieces. Explants are incubated in MS complete medium with auxin in the presence or absence of cytokinin as described in section (a) above for tobacco. Young tobacco leaves, potato stems, tomato leaves and cassava leaves and stems from one-month-old plants were removed and cut into small pieces. The explants were incubated on (1) the MS complete medium containing different concentrations of auxin related compounds only (2) the MS complete medium containing different concentrations of auxin-related compounds and 0.5 mg/l benzylaminopurine (BAP) using an 18 hour light/6 hour dark cycle until the formation of green calli, shoots or roots.

tomato leaf discs [5] = test: Regeneration of shoots or calli from tomato leaf explants, auxin together with cytokinin (BAP); format: cell-based; conditions: 0.5, 2.0 or 8.0 with 0.5 mg/l BAP
Description: In particular embodiments of the invention, various IAA analogues were screened for auxinic activity by incubating different plant tissues, e.g., tobacco and tomato leaf discs and potato stems in (a) MS complete medium (obtained from Life Technologies, Inc., Gaithersburg, Md.) containing different concentrations of auxin only and (2) the MS complete auxin medium containing different ratios of cytokinin/auxin. These IAA derivatives were further evaluated for auxinic activity in the presence of a cytokinin. […] Incubation of plant tissues Tomato seeds of variety “Moneymaker” are provided by Dr. James Saunders (USDA, Beltsville, Md.). Young tomato leaves are removed and cut into small pieces. Explants are incubated in MS complete medium with auxin in the presence or absence of cytokinin as described in section (a) above for tobacco. Young tobacco leaves, potato stems, tomato leaves and cassava leaves and stems from one-month-old plants were removed and cut into small pieces. The explants were incubated on (1) the MS complete medium containing different concentrations of auxin related compounds only (2) the MS complete medium containing different concentrations of auxin-related compounds and 0.5 mg/l benzylaminopurine (BAP) using an 18 hour light/6 hour dark cycle until the formation of green calli, shoots or roots.

potato stems [6] = test: Regeneration of roots or calli from potato stem explants, MS complete medium with auxin only; format: cell-based; set-up: key to Potato Roots (regeneration): +(−) means preliminary observation; conditions: for root formation in potato stems: absence of BAP
Description: as §3, §4
Potato seeds of variety “Kent V. F.” are provided by Dr. James Saunders (USDA, Beltsville, Md.). Young potato stems are removed and cut into small pieces. Explants are incubated in MS complete medium with auxin in the presence or absence of cytokinin as described in section (a) above for tobacco.
as §5

tomato leaf discs [7] = test: Regeneration of roots or calli from tomato leaf explants, MS complete medium with auxin only; format: cell-based; conditions: 0.5, 2.0 and 8.0 mg/l, absence of BAP
Description: as §3, §4
Tomato seeds of variety “Moneymaker” are provided by Dr. James Saunders (USDA, Beltsville, Md.). Young tomato leaves are removed and cut into small pieces. Explants are incubated in MS complete medium with auxin in the presence or absence of cytokinin as described in section (a) above for tobacco.
as §6

Molecule	regeneration of kanamycin resistant calli and shoots in transformed tobacco (transformed tobacco)	Potato Callus (regeneration of transformed tissue) (transformed potato)	regeneration of kanamycin resistant calli in transformed potato (transformed potato)	also measured
O=C(O)Cc1c[nH]c2c(F)cccc12 [7-FIAA, 7-fluoroindole-3-acetic acid]	stimulated	+(−)	stimulated	
O=C(O)Cc1c[nH]c2c(Br)cccc12 [7-BrIAA, 7-bromoindole-3-acetic acid]	stimulated	+(−)	stimulated	
CCc1cccc2c(CC(=O)O)c[nH]c12 [7-EtIAA, 7-ethylindole-3-acetic acid]	stimulated	+(−)	stimulated	
COc1ccc2[nH]cc(CC(=O)O)c2c1 [5-MeoIAA, 5-methoxyindole-3-acetic acid]	stimulated		stimulated	
CCc1ccc2[nH]cc(CC(=O)O)c2c1 [5-EtIAA, 5-ethylindole-3-acetic acid]	stimulated		stimulated	Tobacco Callus (regeneration) (tobacco leaf discs [1]): +(−)
O=C(O)Cc1c[nH]c2ccc(Cl)cc12 [5-ClIAA, 5-chloroindole-3-acetic acid]	stimulated		stimulated	
5-bromo-IAA				callus and shoot formation in combination with cytokinin [2]: both callus and shoot formation are observed; effectiveness in stimulating the regeneration of green calli, relative to IAA (Arabidopsis thaliana): between two and four times more effective than IAA
O=C(O)Cc1c[nH]c2ccc(F)cc12 [5-FIAA, 5-fluoroindole-3-acetic acid]	stimulated		stimulated	shoot formation in cassava stems and leaves (Cassava leaves and stems): promoted the formation of shoots in cassava stems and to a greater extent from cassava leaves; also recorded: regeneration of shoots
O=C(O)Cc1c[nH]c2cc(Br)ccc12 [6-BrIAA, 6-bromoindole-3-acetic acid]				growth response of tobacco leaf discs (tobacco leaf discs [3]; different concentrations, presence of BAP): the formation of both shoots and calli occurred; growth response of potato stems (potato stems [4]; 0.5, 2.0, 8.0 mg/l with BAP 0.5 mg/l): callus formation was observed at all ratios of cytokinin/auxin; growth response of tomato leaf discs (tomato leaf discs [5]): calli, not roots, were formed; root formation in potato stems (potato stems [6]): root formation was diminished; root formation in potato stems (potato stems [6]; concentration increased from 0.5 to 2.0 mg/l): root formation increased; growth response of tobacco leaf discs (tobacco leaf discs [1]; different concentrations, absence of BAP): both the formation of roots and the formation of calli were observed; growth response of tomato leaf discs (tomato leaf discs [7]): only root formation was observed
O=C(O)Cc1c[nH]c2ccc(I)cc12 [5-IIAA, 5-iodoindole-3-acetic acid]				Tobacco Callus (regeneration) (tobacco leaf discs [3]; BAP 0.5 mg/l + Auxins 2 mg/l): +(−); Potato Callus (regeneration) (potato stems [4]; BAP 0.5 mg/l + Auxins 2 mg/l): +(−); Potato Roots (regeneration) (potato stems [6]; Auxins 2 mg/l, no cytokinin, MS complete medium): +(−); Tobacco Callus (regeneration) (tobacco leaf discs [1]): +(−)
